Like-named read-outs stand apart in the source and are kept apart here.
Legend:
κ-opioid receptor [1] = biological target: T1, κ-opioid receptor (Homo sapiens (Human), UniProt P41145); experiment: κ-opioid receptor [35S]GTPγS functional assay, HEK-293 or CHO cells; format: biochemical
Experimental: κ-Opioid Receptor Functional Assay Procedures: Functional [^35S]GTPγS binding assays were conducted as follows. κ opioid receptor membrane solution was prepared by sequentially adding final concentrations of 0.026 μg/μl κ membrane protein (in-house), 10 μg/mL saponin, 3 μM GDP and 0.20 nM [^35S]GTPγS to binding buffer (100 mM NaCl, 10 mM MgCl2, 20 mM HEPES, pH 7.4) on ice. The prepared membrane solution (190 μl/well) was transferred to 96-shallow well polypropylene plates containing 10 μl of 20× concentrated stock solutions of agonist prepared in DMSO. Plates were incubated for 30 min at a temperature of about 25° C. with shaking. Reactions were terminated by rapid filtration onto 96-well Unifilter GF/B filter plates (Perkin Elmer, Shelton, Conn.) using a 96-well tissue harvester (Packard) and followed by three filtration washes with 200 μl ice-cold binding buffer (10 mM NaH2PO4, 10 mM Na2HPO4, pH 7.4). Filter plates were subsequently dried at 50° C. for 2-3 hours. Fifty μl/well scintillation cocktail (Perkin Elmer, Shelton, Conn.) was added and plates were counted in a Packard Top-Count for 1 min/well.
κ-Opioid Receptor Functional Data: κ GTP EC50 is the concentration of a compound providing 50% of the maximal response for the compound at a κ receptor.
κ GTP Emax (%) is the maximal effect elicited by a compound relative to the effect elicited by U69,593.
(§1) In TABLE 2, activity response of certain Compounds of the Invention to the μ-, δ- and κ-opioid receptors was determined as described above for functional assays using HEK-293 or CHO cells.

μ-opioid receptor = μ-opioid receptor (Homo sapiens (Human), UniProt P35372); experiment: μ-opioid receptor [35S]GTPγS functional assay, HEK-293 or CHO cells; format: biochemical
Experimental: μ-Opioid Receptor Functional Assay Procedures: [^35S]GTPγS functional assays were conducted using freshly thawed μ-receptor membranes prepared in-house from a cell line expressing recombinant μ opioid receptor in a HEK-293, CHO or U-2 OS cell background, or purchased from a commercial source (Perkin Elmer, Shelton, Conn.; or DiscovRx, Fremont, Calif.). Assay reactions were prepared by sequentially adding the following reagents to binding buffer (100 mM NaCl, 10 mM MgCl2, 20 mM HEPES, pH 7.4) on ice (final concentrations indicated): membrane protein (0.026 mg/mL), saponin ([…]), GDP ([…]) and [^35S]GTPγS (0.20 nM; Perkin Elmer, Shelton, Conn.). The prepared membrane solution (190 μl/well) was transferred to 96-shallow well polypropylene plates containing 10 μl of 20× concentrated stock solutions of the agonist [D-Ala^2, N-methyl-Phe^4 Gly-ol^5]-enkephalin (DAMGO) prepared in dimethyl sulfoxide (DMSO). Plates were incubated for 30 min at about 25° C. with shaking. Reactions were terminated by rapid filtration onto 96-well Unifilter GF/B filter plates (Perkin Elmer, Shelton, Conn.) using a 96-well tissue harvester (Perkin Elmer, Shelton, Conn.) followed by three filtration washes with 200 μl of ice-cold wash buffer (10 mM NaH2PO4, 10 mM Na2HPO4, pH 7.4). Filter plates were subsequently dried at 50° C. for 2-3 hours. BetaScint scintillation cocktail (Perkin Elmer, Shelton, Conn.) was added (50 μl/well) and plates were counted using a Packard Top-Count for 1 min/well. Data were analyzed using the sigmoidal dose-response curve fitting functions in GraphPad PRISM v. 3.0, or an in-house function for non-linear, sigmoidal dose-response curve-fitting.
μ-Opioid Receptor Functional Data: μ GTP EC50 is the concentration of a compound providing 50% of the maximal response for the compound at a μ-opioid receptor.
μ GTP Emax (%) is the maximal effect elicited by a compound relative to the effect elicited by DAMGO, a standard μ agonist. Generally, the μ GTP Emax (%) value measures the efficacy of a compound to treat or prevent pain or other Conditions.
as §1

κ-opioid receptor [2] = biological target: T1, κ-opioid receptor; experiment: κ-opioid receptor radioligand dose-displacement binding assay ([3H]-U69,593); details: binding affinity, [3H]-U69,593 displacement
Experimental: κ-Opioid Receptor Binding Assay Procedures: Membranes from HEK-293 cells, CHO or U-2 OS cells expressing the recombinant human kappa opioid receptor (κ) were prepared by lysing cells in ice cold hypotonic buffer (2.5 mM MgCl2, 50 mM HEPES, pH 7.4) (10 mL/10 cm dish) followed by homogenization with a tissue grinder/Teflon pestle. Membranes were collected by centrifugation at 30,000×g for 15 min at 4° C. and pellets were resuspended in hypotonic buffer to a final concentration of 1-3 mg/mL. Protein concentrations were determined using the BioRad protein assay reagent with bovine serum albumen as standard, Aliquots of κ receptor membranes were stored at […].
Radioligand dose displacement assays used 0.4 nM [^3H]-U69,593 (GE Healthcare, Piscataway, N.J.; 40 Ci/mmole) with 15 μg membrane protein (recombinant κ opioid receptor expressed in HEK 293 cells; in-house prep) in a final volume of 200 μl binding buffer (5% DMSO, 50 mM Trizma base, pH 7.4). Non-specific binding was determined in the presence of 10 μM unlabeled naloxone or U69,593. All reactions were performed in 96-well polypropylene plates for 1 hour at a temperature of about 25° C. Binding reactions were terminated by rapid filtration onto 96-well Unifilter GF/C filter plates (Perkin Elmer, Shelton, Conn.) presoaked in 0.5% polyethylenimine (Sigma). Harvesting was performed using a 96-well tissue harvester (Perkin Elmer, Shelton, Conn.) followed by five filtration washes with 200 μl ice-cold binding buffer. Filter plates were subsequently dried at 50° C. for 1-2 hours. Fifty μl/well scintillation cocktail (Perkin Elmer, Shelton, Conn.) was added and plates were counted in a Packard Top-Count for 1 min/well.

[3] = relative to U69,593, HEK-293 or CHO cells
[4] = relative to DAMGO, HEK-293 or CHO cells

Compound | EC50 (κ-opioid receptor [1]; GTPγS, HEK-293 or CHO cells, read-out: κ EC50) [nM] | κ Emax (%) (κ-opioid receptor [1]; [3]) | EC50 (μ-opioid receptor; GTPγS, HEK-293 or CHO cells, read-out: μ EC50) [nM] | μ Emax (%) (μ-opioid receptor; [4]) | Ki (κ-opioid receptor [2]) [nM] | EC50 (κ-opioid receptor [1]) [nM] | Emax (κ-opioid receptor [1]; [3]) [%] | EC50 (μ-opioid receptor) [nM] | Emax (μ-opioid receptor; [4]) [%]
COc1ccc2c(c1)[C@]13CCN(CC4CC4)[C@H](C2)[C@@H]1Cc1cc(C(=O)O)c(=O)[nH]c1C3 [Compound 10, (6R,6aR,12aS)-15-(cyclopropylmethyl)-2-methoxy-10-oxo-6,6a,7,10,11,12-hexahydro-5H-6,12a-(epiminoethano)naphtho[2,1-g]quinoline-9-carboxylic acid] | 3490 ± 636 | 37.75 ± 1.70 | 225 ± 89.6 | 25.67 ± 0.88 | 183 ± 23.3 | – | – | – | –
COc1ccc2c(c1)[C@]13CCN(CC4CC4)[C@H](C2)[C@]1(O)Cc1cc(C(N)=O)c(=O)[nH]c1C3 [Compound 4, (6R,6aS,12aR)-15-(cyclopropylmethyl)-6a-hydroxy-2-methoxy-10-oxo-6,6a,7,10,11,12-hexahydro-5H-6,12a-(epiminoethano)naphtho[2,1-g]quinoline-9-carboxamide] | – | – | – | – | 292 ± 17 | 5380 ± 489 | 39.7 ± 5.78 | > 20000 | –
NC(=O)CNC(=O)c1cc2c([nH]c1=O)C[C@]13CCN(CC4CC4)[C@H](Cc4ccc(O)cc41)[C@]3(O)C2 [Compound 14, (6R,6aS,12aR)—N-(2-amino-2-oxoethyl)-15-(cyclopropylmethyl)-2,6a-dihydroxy-10-oxo-6,6a,7,10,11,12-hexahydro-5H-6,12a-(epiminoethano)naphtho[2,1-g]quinoline-9-carboxamide] | – | – | – | – | 1.53 ± 0.26 | > 20000 | – | > 20000 | –
COc1ccc2c(c1)[C@]13CCN(CC4CC4)[C@H](C2)[C@@H]1Cc1cc(C(N)=O)c(=O)[nH]c1C3 [Compound 6, (6R,6aR,12aS)-15-(cyclopropylmethyl)-2-methoxy-10-oxo-6,6a,7,10,11,12-hexahydro-5H-6,12a-(epiminoethano)naphtho[2,1-g]quinoline-9-carboxamide] | – | – | – | – | 35.7 ± 2.74 | 2980 ± 587 | 59.3 ± 2.33 | 528 ± 121 | 19.7 ± 2.02
NC(=O)[C@@H]1CCCN1C(=O)c1cc2c([nH]c1=O)C[C@]13CCN(CC4CC4)[C@H](Cc4ccc(O)cc41)[C@]3(O)C2 [Compound 19, (S)-1-((6R,6aS,12aR)-15-(cyclopropylmethyl)-2,6a-dihydroxy-10-oxo-6,6a,7,10,11,12-hexahydro-5H-6,12a-(epiminoethano)naphtho[2,1-g]quinoline-9-carbonyl)pyrrolidine-2-carboxamide] | – | – | – | – | 0.97 ± 0.23 | > 20000 | – | > 20000 | –
C[C@H](NC(=O)c1cc2c([nH]c1=O)C[C@]13CCN(CC4CC4)[C@H](Cc4ccc(O)cc41)[C@]3(O)C2)C(N)=O [Compound 16] | – | – | – | – | 1.05 ± 0.22 | > 20000 | – | 6.44 ± 0.41 | 14.7 ± 3.28
COC(=O)c1cc2c([nH]c1=O)C[C@]13CCN(CC4CC4)[C@H](Cc4ccc(OC)cc41)[C@]3(O)C2 [Compound 2, (6R,6a,S,12aR)-methyl 15-(cyclopropylmethyl)-6a-hydroxy-2-dimethoxy-10-oxo-6,6a,7,10,11,12-hexahydro-5H-6,12a-(epiminoethano)naphtho[2,1-g]quinoline-9-carboxylate] | – | – | – | – | 37.6 ± 4.75 | 594 ± 87 | 37.5 ± 2.25 | > 20000 | –
NC(=O)[C@H](Cc1ccccc1)NC(=O)c1cc2c([nH]c1=O)C[C@]13CCN(CC4CC4)[C@H](Cc4ccc(O)cc41)[C@]3(O)C2 [Compound 17, (6R,6aS,12aR)—N—((S)-1-amino-1-oxo-3-phenylpropan-2-yl)-15-(cyclopropylmethyl)-2,6a-dihydroxy-10-oxo-6,6a,7,10,11,12-hexahydro-5H-6,12a-(epiminoethano)naphtho[2,1-g]quinoline-9-carboxamide] | – | – | – | – | 0.85 ± 0.15 | > 20000 | – | > 20000 | -0.33 ± 0.67
NC(=O)C[C@H](NC(=O)c1cc2c([nH]c1=O)C[C@]13CCN(CC4CC4)[C@H](Cc4ccc(O)cc41)[C@]3(O)C2)C(N)=O [Compound 20, (S)-2-((6R,6aS,12aR)-15-(cyclopropylmethyl)-2,6a-dihydroxy-10-oxo-6,6a,7,10,11,12-hexahydro-5H-6,12a-(epiminoethano)naphtho[2,1-g]quinoline-9-carboxamido)succinamide] | – | – | – | – | 2.59 ± 0.99 | > 20000 | – | > 20000 | –

— patent US8980906B2, “Pyridonemorphinan analogs and biological activity on opioid receptors” (Purdue Pharma L.P., priority 2012, dated 2015)
